Experimental data reported in the OPERA property sets (Mansouri et al. 2018).

Conditions: for log10 BCF / log10 biotransformation half-life (days): fish

Structure (SMILES) | boiling point [°C] | melting point [°C] | further results
CCC(C)Br (centres undefined) | 91.2 | -112 | log10 vapour pressure (mmHg): 1.76
CC1Cc2ccccc2CC1C (centres undefined) | – | -5 | –
CCCCCCCl | 135 | -94 | log10 Henry constant (atm·m³/mol): -1.62; log10 vapour pressure (mmHg): 0.972
CC[C@@]12CCCN(CCc3c([nH]c4ccccc34)CC1)C2 | – | 146 | –
Cc1cccc(Oc2cccc(C)c2)c1 | 284 | – | –
O=[N+]([O-])c1ccc(Cc2ccncc2)cc1 | – | 71 | –
CCC=CCC(=O)O | 208 | 12 | –
C#CCCCC | 71.3 | -132 | log10 vapour pressure (mmHg): 2.12
Cc1c(C2(c3cc(Br)c(O)c(Br)c3C)OS(=O)(=O)c3ccccc32)cc(Br)c(O)c1Br | – | 218 | –
C1=CC=CCCC=C1 | 146 | – | –
C[C@H](O)CC[C@H](C)O | 218 | 43 | –
CCOC(=O)CC(SP(=S)(OC)OC)C(=O)OCC (centres undefined) | – | 2.8 | log10 Henry constant (atm·m³/mol): -8.31; log10 Koc (L/kg): 2.36; log10 vapour pressure (mmHg): -5.47; ready biodegradability: not readily biodegradable; log10 BCF: 1.52; log10 biotransformation half-life (days): 0.29
CCCC1C(=O)N2C(N(C)C)=Nc3ccc(C)cc3N2C1=O (centres undefined) | – | 247 | –
CCCCC1CCC(O)C(OC)C1 (centres undefined) | – | – | ready biodegradability: readily biodegradable
CCc1oc2ccccc2c1C(=O)c1ccc(O)cc1 | – | 124 | –
CC(=O)c1cc(Cl)ccc1Cl | – | 12 | –
Clc1cccc(Cl)c1 | 173 | -24.8 | log10 Henry constant (atm·m³/mol): -2.58; log10 Koa: 4.12; log10 Koc (L/kg): 2.58; log10 vapour pressure (mmHg): 0.332; ready biodegradability: not readily biodegradable; log10 BCF: 2.33; log10 biotransformation half-life (days): -0.21
CCCCCCCCCCCCCCCCOP(=O)(O)OCCCCCCCCCCCCCCCC | – | 74.5 | –
CCCSC(=O)N(CCC)CCC | – | – | log10 Koc (L/kg): 2.33; log10 vapour pressure (mmHg): -1.98
Clc1cc(Cl)cc(-c2cc(Cl)c(Cl)c(Cl)c2Cl)c1 | – | – | log10 Henry constant (atm·m³/mol): -4.7
O=S(=O)(O)C(F)(F)C(F)(F)C(F)(F)C(F)(F)C(F)(F)F | 225 | – | –
Nc1ccc(Nc2ccccc2)c2c1C(=O)c1ccccc1C2=O | – | 192 | –

Structure (SMILES) | boiling point [°C] | melting point [°C] | further results
CCC(C#N)c1ccccc1 (centres undefined) | 241 | – | –
Oc1ccc(C2CCCCC2)cc1Cl | – | 40.5 | –
COc1cc([C@@H]2c3cc4c(cc3C(O[C@@H]3O[C@@H]5CO[C@@H](C)O[C@H]5[C@H](O)[C@H]3O)C3COC(=O)[C@@H]32)OCO4)cc(OC)c1O (some centres undefined) | – | 244 | –
N#Cc1c(Cl)c(Cl)c(Cl)c(C#N)c1Cl | 350 | 250 | log10 Henry constant (atm·m³/mol): -5.7; log10 Koc (L/kg): 3.26; log10 vapour pressure (mmHg): -6.24; ready biodegradability: readily biodegradable; log10 BCF: 1.8; log10 biotransformation half-life (days): 0.27
OC(c1ccc(Cl)cc1)c1cc2ccccc2o1 (centres undefined) | – | 48.5 | –
CCC(C)c1ccccc1O (centres undefined) | 228 | 16 | ready biodegradability: not readily biodegradable
c1ccc2c3c([nH]c2c1)CCCC3 | 328 | 120 | –
CC(C)(O)CCC(C)(C)O | 214 | 92 | –
ClC1=C(Cl)C2(Cl)C3C4C=CC(C4)C3C1(Cl)C2(Cl)Cl (centres undefined) | – | – | ready biodegradability: not readily biodegradable
CCCCCc1ccc(O)cc1O | – | 72.5 | –
CC1(C)[C@@H](OC(=O)CCC(=O)O)CC[C@]2(C)[C@H]3C(=O)C=C4[C@@H]5C[C@@](C)(C(=O)O)CC[C@]5(C)CC[C@@]4(C)[C@]3(C)CC[C@@H]12 | – | 292 | –
CCCNC(=O)COC(=O)c1ccccc1 | – | 89.5 | –
CCC(CC(C)C)C(C)C (centres undefined) | 154 | – | –
CCC(Br)C(=O)OC (centres undefined) | 168 | – | –
N#CCc1ccc2ccccc2c1 | 303 | 83 | –
N#C/C=C/c1ccccc1 | 264 | 22 | –
CCOC(=O)C(O)(c1ccc(Cl)cc1)c1ccc(Cl)cc1 | – | 37 | log10 Koc (L/kg): 3.3; log10 vapour pressure (mmHg): -5.66; ready biodegradability: not readily biodegradable; log10 BCF: 2.68; log10 biotransformation half-life (days): -0.08
Cc1ccc(NCc2ccccc2)cc1 | 319 | 19.5 | –
CC(C)CCC[C@@H](C)[C@H]1CC[C@H]2C3=CC=C4C[C@@H](O)CC[C@]4(C)[C@H]3CC[C@]12C | – | 150 | –
O=C(O)CCCCCBr | – | 35 | –
CCC(=O)OC1CCCCC1 | 193 | – | –
CCCCN(CCO)CCO | 275 | – | –

Structure (SMILES) | boiling point [°C] | melting point [°C] | further results
CC[C@H](C)[C@@H](C)[C@@H](C)O | 166 | – | –
C[C@@H](Br)C(=O)Cl | 132 | – | –
Cc1ccc(Br)s1 | 178 | – | –
Cc1cc(=O)n(-c2ccccc2)n1C | 319 | 114 | –
O=S1(=O)CCOCC1 | – | 132 | –
CCCCCCCCCCCCCCCCCCCCCCCCCCCCCCCCCCC | 490 | 75 | log10 vapour pressure (mmHg): -11.3; ready biodegradability: readily biodegradable
C=CCC1(c2ccccc2)C(=O)NC(=O)NC1=O | – | 156 | –
NN1CCOCC1 | 166 | – | –
CC(C)C(O)(c1ccc(OC(F)(F)F)cc1)c1cncnc1 (centres undefined) | 264 | 95 | log10 vapour pressure (mmHg): -6.44
O=C(O)C(Br)Br | – | 49 | log10 Henry constant (atm·m³/mol): -8.35
CN1CCN(C(=O)OC2C3=C(SCCS3)C(=O)N2c2ccc3ccc(Cl)nc3n2)CC1 (centres undefined) | – | 280 | –
CCCCCCCCCCCCCCCCCCCCC | 356 | 40.5 | log10 biodegradation half-life (days): 1.4; log10 vapour pressure (mmHg): -4.06; ready biodegradability: readily biodegradable
COC(=O)C1(S(=O)(=O)c2ccccc2)CCCC1 | – | 56.5 | –
OCCN(CCO)c1ccccc1 | – | 57 | –
O=[N+]([O-])c1ccccc1CCO | 267 | 2 | –
CC(O)CNCCN (centres undefined) | – | -50 | –
COC(=O)C(F)(F)C(F)(F)F | 59.5 | – | –
Clc1cc2oc3cc(Cl)c(Cl)c(Cl)c3c2cc1Cl | – | 225 | log10 vapour pressure (mmHg): -8.76; log10 BCF: 3.58
c1ccc(N2CCN(c3ccccc3)CC2)cc1 | – | 165 | –
O=C(O)C1CCCC1 | 212 | -7 | –
CCCC1CCCC1 | 131 | -117 | log10 vapour pressure (mmHg): 1.09
Nc1ccc(/N=N/c2ccc(S(N)(=O)=O)cc2)c(N)c1 | – | 250 | –

Structure (SMILES) | boiling point [°C] | melting point [°C] | further results
Fc1cccc(N=C=S)c1 | 227 | – | –
c1ncncn1 | 114 | 86 | –
CCCCC(C)(C)CO | 172 | – | –
CC(=O)C(C)C | 94.3 | -92 | log10 Koa: 3.04; log10 vapour pressure (mmHg): 1.72; ready biodegradability: readily biodegradable
NCCC(=O)O | – | – | ready biodegradability: readily biodegradable
O=C(OC[C@H]1O[C@@H](Oc2ccccc2CO)[C@H](O)[C@@H](O)[C@@H]1O)c1ccccc1 | – | 180 | –
COc1cc(O)c(C(=O)c2ccccc2)c(O)c1 | – | 130 | –
O=C1CCO1 | 162 | -33.4 | ready biodegradability: readily biodegradable
CCCOP(=S)(OCCC)SCC(=O)N1CCCCC1C (centres undefined) | – | – | log10 Koc (L/kg): 3.44; log10 vapour pressure (mmHg): -6.62
CCCCOC(=O)CC(O)(CC(=O)OCCCC)C(=O)OCCCC | – | -20 | –
CN1C(=O)CN=C(c2ccccc2F)c2cc(Cl)ccc21 | – | 296 | –
C=CC(C)(C)CCC | 104 | – | –
Cc1cc(=O)cc(C)o1 | 251 | 132 | –
CC(C)(C(=O)O)n1nnc2ccccc21 | – | 182 | –
CCC1NC(=O)c2cc(S(N)(=O)=O)c(Cl)cc2N1 (centres undefined) | – | 251 | –
CC(C)(C)c1cccc(C(C)(C)C)n1 | – | 2.2 | –
CCC(=O)c1cccc(OC)c1 | 259 | – | –
CCOc1ccccc1C(N)=O | – | 133 | –
ClC(Cl)C(Cl)C(Cl)Cl | 199 | -10 | log10 vapour pressure (mmHg): -0.0278; ready biodegradability: not readily biodegradable
ClC(Cl)(Br)Br | 150 | 38 | –
